The supplement of paper PMC10307832

Key:
Experiment in all cases: relative viability (nuclei count vs DMSO), 5 days (fraction); higher = more cells survive
[1] = system: NCI-H1793
Outline: (§1)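 Lung cancer cell lines were seeded in 1536-well plates and dosed by pin tool the next day, with either a single drug or a fixed anchor-drug dose combined with five library-drug doses (not always all listed) spaced in √10 steps. Five days later, one step fixed the cells and stained their nuclei (final 0.05% Triton X-100, 1% formaldehyde, 1 ug/ml Hoechst), and nuclei were counted on 4× images. Relative viability is the nuclei count in treated wells divided by the count in vehicle wells, and each value is the median of duplicate plates.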

[2] = system: LC-2-ad
Outline: as §1

[3] = system: EPLC-272H
Outline: as §1

[4] = system: NCI-H1944
Outline: as §1

[5] = system: NCI-H2342
Outline: as §1

[6] = system: LK-2
Outline: as §1

[7] = system: SW 1573
Outline: as §1

[8] = system: NCI-H1734
Outline: as §1

[9] = system: NCI-H2023
Outline: as §1

[10] = system: NCI-H322M
Outline: as §1

[11] = system: ABC-1
Outline: as §1

[12] = system: NCI-H441
Outline: as §1

[13] = system: NCI-H838
Outline: as §1

[14] = system: NCI-H522
Outline: as §1

[15] = system: A-427
Outline: as §1

[16] = system: NCI-H1915
Outline: as §1

[17] = system: UMC-11
Outline: as §1

[18] = system: NCI-H647
Outline: as §1

[19] = system: RERF-LC-KJ
Outline: as §1

[20] = system: NCI-H358
Outline: as §1

[21] = system: NCI-H2347
Outline: as §1

[22] = system: NCI-H2009
Outline: as §1

[23] = system: HCC-15
Outline: as §1

`CN1CCN(CCOc2cc(OC3CCOCC3)c3c(Nc4c(Cl)ccc5c4OCO5)ncnc3c2)CC1` [Saracatinib] + O=C(c1cc(Cc2n[nH]c(=O)c3ccccc23)ccc1F)N1CCN(C(=O)C2CC2)CC1 [Olaparib] (partner 8 µM) was tested, and the relative viability ([1]; first compound 0.02 µM) was 0.872, the relative viability ([1]; first compound 0.2 µM) was 0.498 and the relative viability ([1]; first compound 0.6325 µM) was 0.777. The relative viability ([1]; first compound 2 µM) was 0.564, the relative viability ([2]; first compound 0.02 µM) was 0.773 and the relative viability ([2]; first compound 0.2 µM) was 0.636. It also gave a relative viability ([2]; first compound 0.6325 µM) of 0.723, a relative viability ([2]; first compound 2 µM) of 0.705 and a relative viability ([3]; first compound 0.02 µM) of 0.946. It also gave a relative viability ([3]; first compound 0.2 µM) of 0.714, a relative viability ([3]; first compound 0.6325 µM) of 0.658 and a relative viability ([3]; first compound 2 µM) of 0.426. For the same compound, the relative viability ([4]; first compound 0.02 µM) was 0.406, the relative viability ([4]; first compound 0.2 µM) was 0.344 and the relative viability ([4]; first compound 0.6325 µM) was 0.44. For the same compound, the relative viability ([4]; first compound 2 µM) was 0.358, the relative viability ([5]; first compound 0.02 µM) was 0.55 and the relative viability ([5]; first compound 0.2 µM) was 0.312. For the same compound, the relative viability ([5]; first compound 0.6325 µM) was 0.434, the relative viability ([5]; first compound 2 µM) was 0.451 and the relative viability ([6]; first compound 0.02 µM) was 0.802. The relative viability ([6]; first compound 0.2 µM) was 0.505, the relative viability ([6]; first compound 0.6325 µM) was 0.437 and the relative viability ([6]; first compound 2 µM) was 0.388. The relative viability ([7]; first compound 0.02 µM) was 0.502, the relative viability ([7]; first compound 0.2 µM) was 0.382 and the relative viability ([7]; first compound 0.6325 µM) was 0.448. It also gave a relative viability ([7]; first compound 2 µM) of 0.384, a relative viability ([8]; first compound 0.02 µM) of 0.592 and a relative viability ([8]; first compound 0.6325 µM) of 0.515. The relative viability ([8]; first compound 2 µM) was 0.547, the relative viability ([9]; first compound 0.02 µM) was 0.503 and the relative viability ([9]; first compound 0.6325 µM) was 0.417. The relative viability ([9]; first compound 2 µM) was 0.393, the relative viability ([10]; first compound 0.02 µM) was 0.769 and the relative viability ([10]; first compound 0.2 µM) was 0.492. The relative viability ([10]; first compound 0.6325 µM) was 0.636, the relative viability ([10]; first compound 2 µM) was 0.402 and the relative viability ([11]; first compound 0.02 µM) was 0.568. For the same compound, the relative viability ([11]; first compound 0.2 µM) was 0.941, the relative viability ([11]; first compound 0.6325 µM) was 0.706 and the relative viability ([11]; first compound 2 µM) was 0.751. It also gave a relative viability ([12]; first compound 0.02 µM) of 0.57, a relative viability ([12]; first compound 0.2 µM) of 0.536 and a relative viability ([12]; first compound 0.6325 µM) of 0.634. It also gave a relative viability ([12]; first compound 2 µM) of 0.532, a relative viability ([13]; first compound 0.02 µM) of 0.776 and a relative viability ([13]; first compound 0.2 µM) of 0.643. It also gave a relative viability ([13]; first compound 0.6325 µM) of 0.656, a relative viability ([13]; first compound 2 µM) of 0.505 and a relative viability ([14]; first compound 0.02 µM) of 0.679. For the same compound, the relative viability ([14]; first compound 0.2 µM) was 0.59, the relative viability ([14]; first compound 0.6325 µM) was 0.572 and the relative viability ([14]; first compound 2 µM) was 0.534. The relative viability ([15]; first compound 0.02 µM) was 0.733, the relative viability ([15]; first compound 0.2 µM) was 0.689 and the relative viability ([15]; first compound 0.6325 µM) was 0.715. It also gave a relative viability ([15]; first compound 2 µM) of 0.71, a relative viability ([16]; first compound 0.02 µM) of 0.256 and a relative viability ([16]; first compound 0.2 µM) of 0.244. The relative viability ([16]; first compound 0.6325 µM) was 0.281, the relative viability ([16]; first compound 2 µM) was 0.225 and the relative viability ([17]; first compound 0.02 µM) was 0.42. For the same compound, the relative viability ([17]; first compound 0.2 µM) was 0.306, the relative viability ([17]; first compound 0.6325 µM) was 0.362 and the relative viability ([17]; first compound 2 µM) was 0.351. It also gave a relative viability ([18]; first compound 0.02 µM) of 0.574, a relative viability ([18]; first compound 0.2 µM) of 0.539 and a relative viability ([18]; first compound 0.6325 µM) of 0.406. For the same compound, the relative viability ([18]; first compound 2 µM) was 0.364, the relative viability ([19]; first compound 0.02 µM) was 1.09 and the relative viability ([19]; first compound 0.2 µM) was 0.841. It also gave a relative viability ([19]; first compound 0.6325 µM) of 0.9, a relative viability ([19]; first compound 2 µM) of 0.977 and a relative viability ([20]; first compound 0.02 µM) of 0.527. It also gave a relative viability ([20]; first compound 0.2 µM) of 0.529, a relative viability ([20]; first compound 0.6325 µM) of 0.272 and a relative viability ([20]; first compound 2 µM) of 0.324. It also gave a relative viability ([21]; first compound 0.02 µM) of 0.571, a relative viability ([21]; first compound 0.2 µM) of 0.428 and a relative viability ([21]; first compound 0.6325 µM) of 0.622. For the same compound, the relative viability ([21]; first compound 2 µM) was 0.551, the relative viability ([22]; first compound 0.02 µM) was 0.709 and the relative viability ([22]; first compound 0.2 µM) was 0.477. The relative viability ([22]; first compound 0.6325 µM) was 0.688, the relative viability ([22]; first compound 2 µM) was 0.724 and the relative viability ([23]; first compound 0.02 µM) was 0.717. It also gave a relative viability ([23]; first compound 0.2 µM) of 0.634, a relative viability ([23]; first compound 0.6325 µM) of 0.79 and a relative viability ([23]; first compound 2 µM) of 0.752.
